For this data set the following is noted: instrument: TW, calibrated with polyalanine and drug standards.

Counter-ions that a name gives are not always drawn.

For `CC(C)C(=O)Nc1ccc([N+](=O)[O-])c(C(F)(F)F)c1` [FLUTAMIDE], where the note is “[M+H]+”, the “collision cross section (N2)” value worked out at 160 Å².

Regarding `O=C(O)c1ccccc1OP(=O)(O)O` [FOSFOSAL], for the setting “[M+H]+”, the “collision cross section (N2)” value is on record as 138.4 Å².

As to `Cc1cccc(C)c1NC(=O)c1ccccc1C(=O)O` [FTAXILIDE], the “collision cross section (N2)” value ([M+H]+) worked out at 159.2 Å². In the case of `Cc1cc(O)c(C=O)c2c1C(=O)Oc1c(COC(=O)/C=C/C(=O)O)c(O)c(C(=O)O)c(C)c1O2` [FUMARPROTOCETRARIC ACID], the “collision cross section (N2)” value ([M+H]+) stood at 204.5 Å².

Consider `O=C1OC(CN2CCOCC2)CN1/N=C/c1ccc([N+](=O)[O-])o1` (centres undefined) [FURALTADONE], for which the “collision cross section (N2)” value ([M+H]+) turned out to be 166.9 Å².

As to `O=c1c(O)c(-c2ccccc2)oc2cc(O)cc(O)c12` [GALANGIN], where the note is “[M+H]+”, the “collision cross section (N2)” value amounted to 154.9 Å². On to `O=C(O)c1cc(O)c(O)c(O)c1` [GALLIC ACID], for which, under “[M+H]+”, the “collision cross section (N2)” value stood at 130.9 Å².

For `COC(=O)c1c(OC)cc2c(c1C)Oc1c(Cl)c(O)c(Cl)c(C)c1C(=O)O2` [GANGALEOIDIN], the “collision cross section (N2)” value ([M+H]+) is given as 186.4 Å². On the same count and under the same terms, as for `COc1c(N2CCNC(C)C2)c(F)cc2c(=O)c(C(=O)O)cn(C3CC3)c12` (centres undefined) [GATIFLOXACIN], the figure is 189.5 Å²; as for `Cc1ccc(S(=O)(=O)NC(=O)NN2CC3CCCC3C2)cc1` (centres undefined) [GLICLAZIDE], 178 Å².

For `OC[C@@H](O)[C@@H](O[C@@H]1O[C@H](CO)[C@@H](O)[C@H](O)[C@H]1O)[C@H](O)[C@@H](O)CO` [GLUCITOL-4-GUCOPYANOSIDE], the “collision cross section (N2)” value ([M+Na]+) amounted to 174.3 Å². As for `N[C@@H](C(=O)O)[C@@H](O)[C@H](O)[C@H](O)CO` [GLUCOSAMINIC ACID], the “collision cross section (N2)” value ([M+H]+) is 138.8 Å². For the molecule `COc1ccc(Cl)cc1C(=O)NCCc1ccc(S(=O)(=O)NC(=O)NC2CCCCC2)cc1` [GLYBURIDE], the “collision cross section (N2)” value ([M+H]+) turned out to be 205.9 Å².

For `Cc1cc2c(C(C)C)c(O)c(O)c(C=O)c2c(O)c1-c1c(C)cc2c(C(C)C)c(O)c(O)c(C=O)c2c1O` [GOSSYPOL], the “collision cross section (N2)” value ([M+H-H2O]+) is recorded as 228.1 Å². As for `C[C@H]1CC[C@@H](C(C)(C)O)CC2=C1CC[C@@H]2C` [GUAIOL(-)], the “collision cross section (N2)” value ([M+H]+) is listed as 146.3 Å². With `NC(N)=NC(=O)Cc1c(Cl)cccc1Cl` [GUANFACINE], the “collision cross section (N2)” value ([M+H]+) was 148.9 Å².

Take `CCOC(=O)c1c(C)cc(O)c(C=O)c1O` [HAEMATOMMIC ACID, ETHYL ESTER]: the “collision cross section (N2)” value ([M+H]+) worked out at 144 Å². As for `O=C(CCCN1CCC(O)(c2ccc(Cl)cc2)CC1)c1ccc(F)cc1` [HALOPERIDOL], where the note is “[M+H]+”, the “collision cross section (N2)” value turned out to be 191.7 Å². For the molecule `Cc1nccc2c1[nH]c1ccccc12` [HARMANE], where the note is “[M+H]+”, the “collision cross section (N2)” value is given as 136.6 Å². Consider `CC1(C)CC[C@]2(C(=O)O)CC[C@]3(C)C(=CC[C@@H]4[C@@]5(C)CC[C@H](O)[C@@](C)(CO)[C@@H]5CC[C@]43C)[C@@H]2C1` [HEDERAGENIN], for which the “collision cross section (N2)” value ([M+H-H2O]+) is reported as 210.6 Å².

As for `O=Cc1ccccc1O[C@@H]1O[C@H](CO)[C@@H](O)[C@H](O)[C@H]1O` [HELICIN], the “collision cross section (N2)” value ([M+Na]+) is on record as 161.4 Å². As for `CCCCC(CC)CN1CN(CC(CC)CCCC)CC(C)(N)C1` (centres undefined) [HEXETIDINE], the “collision cross section (N2)” value ([M+H]+) was 194 Å². `COc1ccc2c(c1)O[C@H]1c3ccc(OC)cc3OC[C@@H]21` [HOMOPTEROCARPIN]: where the note is “[M+H]+”, the “collision cross section (N2)” value worked out at 162.7 Å². In the case of `CCN(CC)CCNc1ccc(CO)c2sc3ccccc3c(=O)c12` [HYCANTHONE], the “collision cross section (N2)” value ([M+H]+) is recorded as 180.4 Å². With `NS(=O)(=O)c1cc2c(cc1Cl)NCNS2(=O)=O` [HYDROCHLOROTHIAZIDE], for the setting “[M+H-H2O]+”, the “collision cross section (N2)” value turned out to be 160.8 Å². With `CC[C@H]1CN2CC[C@H]1C[C@@H]2[C@@H](O)c1ccnc2ccc(OC)cc12` [HYDROQUINIDINE], where the note is “[M+H]+”, the “collision cross section (N2)” value was 176.7 Å².

For `CC(=O)[C@@]1(O)CC[C@H]2[C@@H]3CCC4=CC(=O)CC[C@]4(C)[C@H]3CC[C@@]21C` [HYDROXYPROGESTERONE], the “collision cross section (N2)” value ([M+H]+) amounted to 179.9 Å². Regarding `COc1ccc2c(C)cc(=O)oc2c1` [HYMECROMONE METHYL ETHER], where the note is “[M+H]+”, the “collision cross section (N2)” value was determined as 134.4 Å². `COC1=C(OC)C(=O)C(CCCCCCCCCCO)=C(C)C1=O` [IDEBENONE]: the “collision cross section (N2)” value ([M+H]+) is given as 178.6 Å².

In the case of `O=C([O-])Cc1cnc[nH]1` [IMIDAZOL-4-YLACETIC ACID SODIUM SALT], the “collision cross section (N2)” value ([M+H]+) is given as 120.7 Å². Turning to `CCC(Cc1c(I)cc(I)c(N)c1I)C(=O)O` (centres undefined) [IOPANIC ACID], for the setting “[M+H]+”, the “collision cross section (N2)” value worked out at 172.7 Å². For `CC(C)Oc1ccc2c(=O)c(-c3ccccc3)coc2c1` [IPRIFLAVONE], for the setting “[M+H]+”, the “collision cross section (N2)” value worked out at 164.3 Å². Same read-out and setting: as for `CCCCC1=NC2(CCCC2)C(=O)N1Cc1ccc(-c2ccccc2-c2nn[nH]n2)cc1` [IRBESARTAN], the figure is 201.2 Å². The same measure, in the same setting: as for `COc1cc(-c2coc3cc(O[C@@H]4O[C@H](CO)[C@@H](O)[C@H](O)[C@H]4O)c(OC)c(O)c3c2=O)cc(O)c1OC` [IRIDIN], the figure is 227.2 Å²; as for `COc1cc(-c2coc3cc(OC)c(OC)c(OC)c3c2=O)cc(OC)c1OC` [IRIGENIN TRIMETHYL ETHER], 195.4 Å². In the case of `COc1cc(-c2coc3cc(O)c(OC)c(O)c3c2=O)cc(O)c1OC` [IRIGENIN], where the note is “[M+H]+”, the “collision cross section (N2)” value amounted to 181.6 Å². For the molecule `COc1cc2occc2c2oc(=O)ccc12` [ISOBERGAPTENE], for the setting “[M+H]+”, the “collision cross section (N2)” value came to 139.8 Å². `COc1cc2c(cc1OC)[C@@H]1C(=O)c3ccc4oc(C(C)C)cc4c3O[C@@H]1CO2` [ISOROTENONE]: the “collision cross section (N2)” value ([M+H]+) came to 195.2 Å². Regarding `O=[N+]([O-])O[C@H]1CO[C@H]2[C@@H]1OC[C@H]2O[N+](=O)[O-]` [ISOSORBIDE DINITRATE], for the setting “[M+H]+”, the “collision cross section (N2)” value is reported as 151.6 Å². As for `Cc1cc(NC(=O)C2=C(O)c3ccccc3S(=O)(=O)N2C)no1` [ISOXICAM], the “collision cross section (N2)” value ([M+H]+) was 170.8 Å². On to `CC[C@H](C)[C@H]1O[C@]2(CC[C@@H]1C)C[C@@H]1C[C@@H](C/C=C(\C)[C@@H](O[C@H]3C[C@H](OC)[C@@H](O[C@H]4C[C@H](OC)[C@@H](O)[C@H](C)O4)[C@H](C)O3)[C@@H](C)/C=C/C=C3\CO[C@@H]4[C@H](O)C(C)=C[C@@H](C(=O)O1)[C@]34O)O2` [IVERMECTIN], for which the “collision cross section (N2)” value ([M+Na]+) turned out to be 292.7 Å². As to `CC(=O)N1CCN(c2ccc(OC[C@H]3CO[C@](Cn4ccnc4)(c4ccc(Cl)cc4Cl)O3)cc2)CC1` [KETOCONAZOLE], the “collision cross section (N2)” value ([M+H]+) is 214.5 Å². For the molecule `OC[C@H]1O[C@@H](n2cnc3c(NCc4ccco4)ncnc32)[C@H](O)[C@@H]1O` [KINETIN RIBOSIDE], where the note is “[M+H]+”, the “collision cross section (N2)” value amounted to 179 Å². For the molecule `c1coc(CNc2ncnc3nc[nH]c23)c1` [KINETIN], the “collision cross section (N2)” value ([M+H]+) is given as 144.1 Å².

For `Nc1nnc(-c2cccc(Cl)c2Cl)c(N)n1` [LAMOTRIGINE], where the note is “[M+H]+”, the “collision cross section (N2)” value is 150.6 Å². On to `Cc1c(OCC(F)(F)F)ccnc1CS(=O)c1nc2ccccc2[nH]1` (centres undefined) [LANSOPRAZOLE], for which the “collision cross section (N2)” value ([M+H]+) is reported as 185.8 Å². For the molecule `CC(C)CCC[C@@H](C)[C@H]1CC[C@H]2C3=CC[C@H]4C[C@@H](O)CC[C@]4(C)[C@H]3CC[C@]12C` [LATHOSTEROL], the “collision cross section (N2)” value ([M+H-H2O]+) came out at 204 Å². In the case of `NCCCC[C@H](N[C@@H](CCc1ccccc1)C(=O)O)C(=O)N1CCC[C@H]1C(=O)O` [LISINOPRIL], for the setting “[M+H]+”, the “collision cross section (N2)” value was found to be 189.7 Å².

With `CCCCc1nc(Cl)c(CO)n1Cc1ccc(-c2ccccc2-c2nn[nH]n2)cc1` [LOSARTAN], the “collision cross section (N2)” value ([M+H]+) is reported as 199.2 Å².

`C[C@H]1[C@H](C)CC[C@]2(C(=O)O)CC[C@]3(C)C(=CC[C@@H]4[C@@]5(C)C[C@@H](O)[C@H](O)[C@@](C)(CO)[C@@H]5[C@H](O)C[C@]43C)[C@H]12` [MADECASSIC ACID]: where the note is “[M+Na]+”, the “collision cross section (N2)” value was 234.8 Å². In the case of `CCOC(=O)CC(SP(=S)(OC)OC)C(=O)OCC` (centres undefined) [MALATHION], under “[M+Na]+”, the “collision cross section (N2)” value is 171.5 Å². Regarding `Cc1cccc(Nc2ccccc2C(=O)O)c1C` [MEFENAMIC ACID], the “collision cross section (N2)” value ([M+H]+) came out at 153.3 Å². The same measure, in the same setting: the figure for `N[C@@H](Cc1ccc(N(CCCl)CCCl)cc1)C(=O)O` [MELPHALAN] is 168.7 Å². Regarding `S=c1nc[nH]c2nc[nH]c12` [MERCAPTOPURINE], the “collision cross section (N2)” value ([M+H]+) is given as 125.5 Å².

Take `CC(=O)Nc1cccc(O)c1` [METACETAMOL]: the “collision cross section (N2)” value ([M+H]+) is recorded as 130.6 Å².

With `COc1cc2c(cc1OC)C(=O)OC2` [METAMECONINE], the “collision cross section (N2)” value ([M+H]+) was found to be 137.6 Å². In the case of `CC(C)NCC(O)c1cc(O)cc(O)c1` (centres undefined) [METAPROTERENOL], under “[M+H]+”, the “collision cross section (N2)” value is 149.9 Å². The same measure, in the same setting: the figure for `COc1c2c(cc3occ(-c4ccc5c(c4)OCO5)c(=O)c13)OC(C)(C)C=C2` [METHYL ROBUSTONE] is 186.9 Å². For the molecule `C[C@H]1C[C@@H]2[C@H]([C@@H](O)C[C@@]3(C)[C@H]2CC[C@]3(O)C(=O)CO)[C@@]2(C)C=CC(=O)C=C12` [METHYLPREDNISOLONE], for the setting “[M+H]+”, the “collision cross section (N2)” value was 187.7 Å². As for `COCCc1ccc(OCC(O)CNC(C)C)cc1` (centres undefined) [METOPROLOL], for the setting “[M+H]+”, the “collision cross section (N2)” value is 170.7 Å². `OCCN1C[C@H](O)[C@@H](O)[C@H](O)[C@H]1CO` [MIGLITOL]: the “collision cross section (N2)” value ([M+H]+) came out at 141 Å². For `N=c1nc(N2CCCCC2)cc(N)n1O` [MINOXIDIL], under “[M+H]+”, the “collision cross section (N2)” value was found to be 146.1 Å². Same read-out and setting: as for `CO[C@@]12[C@H](COC(N)=O)C3=C(C(=O)C(C)=C(N)C3=O)N1C[C@@H]1N[C@@H]12` [MITOMYCIN C], the figure is 169.5 Å². Regarding `CC[C@@]1([C@@H]2O[C@@H]([C@H]3O[C@@](O)(CO)[C@H](C)C[C@@H]3C)C[C@@H]2C)CC[C@H]([C@]2(C)CC[C@]3(C[C@H](O)[C@@H](C)[C@@H]([C@@H](C)[C@@H](OC)[C@H](C)C(=O)O)O3)O2)O1` [MONENSIN], the “collision cross section (N2)” value ([M+Na]+) amounted to 245.1 Å².

For the origin of these results see the C3SDB collision cross section collection.
